SMILES strings stand for the structures.

This assay concerns a variety of test species. Put plainly: Post-emergence herbicidal activity. To be noted: rate 1000 g/ha, evaluated after 13 days. Format: in vivo. On the set-up: key to ABUTH (Abutilon theophrasti) damage score / AMARE (Amaranthus retroflexus) damage score / ALOMY (Alopecurus myosuroides) damage score / ECHCG (Echinochloa crus-galli) damage score / ZEAMX (Zea mays) damage score / SOLNI (Solanum nigrum) damage score: 0 = no damage to plant, 5 = total damage to plant. The protocol:
Seeds of a variety of test species were sown in standard soil in pots. After 8 days cultivation (post-emergence) under controlled conditions in a glasshouse (at 24/16° C., day/night; 14 hours light; 65% humidity), the plants were sprayed with an aqueous spray solution derived from the formulation of the technical active ingredient in acetone/water (50:50) solution containing 0.5% Tween 20 (polyoxyethelyene sorbitan monolaurate, CAS RN 9005-64-5). The test plants were then grown in a glasshouse under controlled conditions (at 24/16° C., day/night; 14 hours light; 65% humidity) and watered twice daily. After 13 days, the test was evaluated (5=total damage to plant; 0=no damage to plant, NC=not captured).
Regarding `CC1=C(Cl)C(O)N(c2cc(C)c(Br)cn2)C1=O` (centres unmarked) [AA10], the “ABUTH (Abutilon theophrasti) damage score” value (“ABUTH” for short) stood at 0, the “ALOMY (Alopecurus myosuroides) damage score” value (from here on “ALOMY”) was 1, the “AMARE (Amaranthus retroflexus) damage score” value (shortened to “AMARE”) is recorded as 3 and the “ECHCG (Echinochloa crus-galli) damage score” value (shortened to “ECHCG”) came to 1. In addition, the “SETFA (Setaria faberi) damage score” value came out at 2 and the “ZEAMX (Zea mays) damage score” value is 1.

Consider `CC1=C(Cl)C(O)N(c2cc(C)ccn2)C1=O` (centres unmarked) [AA13], for which the “ABUTH” value came out at 5, the “ALOMY” value worked out at 3, the “AMARE” value amounted to 4 and the “ECHCG” value is listed as 4. Moreover, the “SETFA (Setaria faberi) damage score” value is 4 and the “ZEAMX (Zea mays) damage score” value was found to be 0.

For the molecule `CC1=C(Cl)C(O)N(c2cc(Cl)c(Cl)cn2)C1=O` (centres unmarked) [AA16], the “ABUTH” value came out at 0, the “ALOMY” value worked out at 1, the “AMARE” value worked out at 0 and the “ECHCG” value was 1. In addition, the “SETFA (Setaria faberi) damage score” value is 3 and the “ZEAMX (Zea mays) damage score” value is listed as 1.

Turning to `CC1=C(Cl)C(O)N(c2cc(C#N)ccn2)C1=O` (centres unmarked) [AA20], the “ABUTH” value is on record as 1, the “ALOMY” value was found to be 1, the “AMARE” value came out at 0 and the “ECHCG” value worked out at 1. In addition, the “SETFA (Setaria faberi) damage score” value turned out to be 1 and the “ZEAMX (Zea mays) damage score” value amounted to 0.

As to `CC1=C(Cl)C(O)N(c2cc(C(F)(F)F)c(Br)cn2)C1=O` (centres unmarked) [AA25, 1-[5-bromo-4-(trifluoromethyl)-2-pyridyl]-3-chloro-2-hydroxy-4-methyl-2H-pyrrol-5-one], the “ABUTH” value is 1, the “ALOMY” value is listed as 2, the “AMARE” value was found to be 5 and the “ECHCG” value is on record as 3. The “SETFA (Setaria faberi) damage score” value was 3 and the “ZEAMX (Zea mays) damage score” value worked out at 1.

Take `CC1=C(Cl)C(O)N(c2cc(C(F)(F)F)c(Cl)cn2)C1=O` (centres unmarked) [AA26]: the “ABUTH” value is 1, the “ALOMY” value is on record as 2, the “AMARE” value was found to be 5 and the “ECHCG” value was 3. Besides, the “SETFA (Setaria faberi) damage score” value is recorded as 3 and the “ZEAMX (Zea mays) damage score” value amounted to 0.

Consider `CC1=C(Cl)C(O)N(c2cc(Br)ccn2)C1=O` (centres unmarked) [AA31], for which the “ALOMY” value was 1, the “AMARE” value came to 5, the “ECHCG” value is 2 and the “SETFA (Setaria faberi) damage score” value is 3. Further, the “SOLNI (Solanum nigrum) damage score” value came to 5 and the “ZEAMX (Zea mays) damage score” value is recorded as 0.

`CC1=C(Cl)C(O)N(c2ccc(Cl)cn2)C1=O` (centres unmarked) [AA32]: the “ALOMY” value is on record as 0, the “AMARE” value is 0, the “ECHCG” value stood at 0 and the “SETFA (Setaria faberi) damage score” value came out at 2. Further, the “SOLNI (Solanum nigrum) damage score” value stood at 2 and the “ZEAMX (Zea mays) damage score” value stood at 0.

For `CC1=C(Cl)C(O)N(c2cc(Cl)ccn2)C1=O` (centres unmarked) [AA33], the “ALOMY” value is 1, the “AMARE” value is listed as 5, the “ECHCG” value is given as 2 and the “SETFA (Setaria faberi) damage score” value was determined as 3. Moreover, the “SOLNI (Solanum nigrum) damage score” value worked out at 5 and the “ZEAMX (Zea mays) damage score” value came out at 0.

On to `CC1=C(Cl)C(O)N(c2cc(C(F)(F)F)ccn2)C1=O` (centres unmarked) [AA35], for which the “ALOMY” value was determined as 2, the “AMARE” value is 5, the “ECHCG” value is listed as 4 and the “SETFA (Setaria faberi) damage score” value came to 4. In addition, the “SOLNI (Solanum nigrum) damage score” value is on record as 5 and the “ZEAMX (Zea mays) damage score” value is listed as 0.

For `CC1=C(Cl)C(O)N(c2ccc(C)cn2)C1=O` (centres unmarked) [AA36], the “ALOMY” value was 1, the “AMARE” value turned out to be 4, the “ECHCG” value is on record as 2 and the “SETFA (Setaria faberi) damage score” value was determined as 1. For the same molecule, the “SOLNI (Solanum nigrum) damage score” value was 3 and the “ZEAMX (Zea mays) damage score” value came out at 0.

In the case of `CC1=C(Cl)C(O)N(c2ccc(OC(F)(F)F)cn2)C1=O` (centres unmarked) [AA38], the “ABUTH” value was found to be 1, the “ALOMY” value was 1, the “AMARE” value amounted to 4 and the “ECHCG” value was determined as 1. The “SETFA (Setaria faberi) damage score” value is recorded as 1 and the “ZEAMX (Zea mays) damage score” value was determined as 0.

Consider `CCCC1=C(Cl)C(O)N(c2cc(C(F)(F)F)ccn2)C1=O` (centres unmarked) [AA40], for which the “ABUTH” value came to 2, the “ALOMY” value stood at 2, the “AMARE” value turned out to be 4 and the “ECHCG” value worked out at 4. For the same molecule, the “SETFA (Setaria faberi) damage score” value was 1 and the “ZEAMX (Zea mays) damage score” value was 1.

With `CC(C)(C)C1=C(Cl)C(O)N(c2cc(C(F)(F)F)ccn2)C1=O` (centres unmarked) [AA41], the “ABUTH” value was 0, the “ALOMY” value is given as 0, the “AMARE” value amounted to 0 and the “ECHCG” value is recorded as 3. Further, the “SETFA (Setaria faberi) damage score” value was found to be 0 and the “ZEAMX (Zea mays) damage score” value came out at 2.

`CC(C)C1=C(Cl)C(O)N(c2cc(C(F)(F)F)ccn2)C1=O` (centres unmarked) [AA42]: the “ABUTH” value is given as 3, the “ALOMY” value worked out at 1, the “AMARE” value was 3 and the “ECHCG” value is reported as 0. Besides, the “SETFA (Setaria faberi) damage score” value worked out at 0 and the “ZEAMX (Zea mays) damage score” value stood at 1.

Consider `CCC1=C(Cl)C(O)N(c2cc(C(F)(F)F)ccn2)C1=O` (centres unmarked) [AA43], for which the “ABUTH” value is recorded as 2, the “ALOMY” value is given as 1, the “AMARE” value is given as 2 and the “ECHCG” value is given as 5. Moreover, the “SETFA (Setaria faberi) damage score” value amounted to 3 and the “ZEAMX (Zea mays) damage score” value is recorded as 1.

For `CC1=C(Cl)C(O)N(c2cc(C(C)(C)C)ccn2)C1=O` (centres unmarked) [AA44], the “ABUTH” value is given as 1, the “ALOMY” value stood at 1, the “AMARE” value is 3 and the “ECHCG” value stood at 1. Besides, the “SETFA (Setaria faberi) damage score” value was determined as 2 and the “ZEAMX (Zea mays) damage score” value is given as 1.

In the case of `CC1=C(Cl)C(O)N(c2cc(C(F)(F)F)c(C(=O)OC(C)(C)C)cn2)C1=O` (centres unmarked) [AA45], the “ABUTH” value turned out to be 2, the “ALOMY” value came to 2, the “AMARE” value is on record as 3 and the “ECHCG” value was 1. For the same molecule, the “SETFA (Setaria faberi) damage score” value worked out at 2 and the “ZEAMX (Zea mays) damage score” value worked out at 1.

Take `CC1=C(Cl)C(O)N(c2cc(C(F)(F)F)c(C(=O)NC(C)(C)C)cn2)C1=O` (centres unmarked) [AA46]: the “ABUTH” value amounted to 5, the “ALOMY” value is recorded as 3, the “AMARE” value was 5 and the “ECHCG” value is listed as 3. The “SETFA (Setaria faberi) damage score” value is given as 3 and the “ZEAMX (Zea mays) damage score” value amounted to 0.

In the case of `CCOC(=O)c1cnc(N2C(=O)C(C)=C(Cl)C2O)cc1Cl` (centres unmarked) [AA47], the “ABUTH” value was determined as 1, the “ALOMY” value was 1, the “AMARE” value was 0 and the “ECHCG” value was determined as 2. The “SETFA (Setaria faberi) damage score” value is 3 and the “ZEAMX (Zea mays) damage score” value came to 1.

Regarding `CC1=C(Cl)C(O)N(c2cc(C)c(-c3ccsc3)cn2)C1=O` (centres unmarked) [AA48], the “ABUTH” value was 4, the “ALOMY” value is 1, the “AMARE” value was 5 and the “ECHCG” value was determined as 3. Besides, the “SETFA (Setaria faberi) damage score” value worked out at 4 and the “ZEAMX (Zea mays) damage score” value was 0.

As for `CC1=C(Cl)C(O)N(c2cc(C(C)C)c(C(=O)NC(C)(C)C)cn2)C1=O` (centres unmarked) [AA49], the “ABUTH” value turned out to be 3, the “ALOMY” value stood at 2, the “ECHCG” value stood at 1 and the “SETFA (Setaria faberi) damage score” value was 3. Moreover, the “ZEAMX (Zea mays) damage score” value amounted to 0.

For the molecule `CCc1cc(N2C(=O)C(C)=C(Cl)C2O)ncc1Br` (centres unmarked) [AA50], the “ABUTH” value is listed as 3, the “ALOMY” value turned out to be 2, the “AMARE” value was 2 and the “ECHCG” value was 3. Besides, the “SETFA (Setaria faberi) damage score” value is listed as 3 and the “ZEAMX (Zea mays) damage score” value is given as 1.

Regarding `CC1=C(Br)C(O)N(c2cc(C(F)(F)F)ccn2)C1=O` (centres unmarked) [AB1], the “ABUTH” value worked out at 3, the “ALOMY” value is 2, the “AMARE” value stood at 5 and the “ECHCG” value came to 3. The “SETFA (Setaria faberi) damage score” value stood at 4 and the “ZEAMX (Zea mays) damage score” value is listed as 0.

For the origin of these results see patent US9611248B2, “Chemical compounds” (Syngenta Participations AG, priority 2013, dated 2017).
